The text below walks through data of patent EP0908457B1, “3-(1,2-benzisothiazol- and isoxazol-5-Y1)-2,4(1H,3H)-pyrimidinedione or thione and 3-(1,2-benzisothiazol- and isoxazol-5-y1)-4(3H)-pyrimidinone or thione herbicidal agents” (BASF AKTIENGESELLSCHAFT, priority 1997, dated 1999).

Common to all, as to assay type: in vivo
For assay [1], the system named is Monochoria vaginalis, Presl. As to the kind of experiment: Preemergence weed control under flooded paddy conditions, MOOVA (Monochoria). The following applies: preemergence, flooded paddy.
For assay [2], the system named is Cyperus serotinus, Rottb. The experiment in a line: Preemergence weed control under flooded paddy conditions, CYPSE (Flatsedge). The conditions noted are these: preemergence.
In a further assay the test system is Cyperus iria. As to the kind of experiment: Preemergence weed control under flooded paddy conditions, CYPIR (Rice Flatsedge). The conditions noted are these: preemergence, flooded paddy.
The test system of assay [3] is Echinochloa oryzoides (Ard.) Fritsch. As to the kind of experiment: Preemergence weed control under flooded paddy conditions, ECHORC (Watergrass (Calif.)). The conditions noted are these: preemergence, flooded paddy.
The test system of a further assay is Sagittaria pygmaea, L. As to the kind of experiment: Preemergence weed control under flooded paddy conditions, SAGPY (Arrowhead (Pygmaea)). The following applies: preemergence, flooded paddy.
The mark [4] stands for this setting: Rate 0.0320 kg/ha, rated three to four weeks after treatment.
Where [5] appears, read: Rate 0.0620 kg/ha, rated three to four weeks after treatment.
[6] abbreviates: Rate 0.1250 kg/ha, rated three to four weeks after treatment.
[7] abbreviates: Rate 0.2500 kg/ha, rated three to four weeks after treatment.
The mark [8] stands for this setting: Rate 0.0320 kg/ha, rated 3-4 weeks after treatment.
Where [9] appears, read: Rate 0.0620 kg/ha, rated 3-4 weeks after treatment.
Setting [10] is: Rate 0.1250 kg/ha, rated 3-4 weeks after treatment.
Where [11] appears, read: Rate 0.2500 kg/ha, rated 3-4 weeks after treatment.
Where [12] appears, read: Rate 0.5000 kg/ha, rated three to four weeks after treatment.
Note: meaning of each grade not given here.

As for `CC(C)S(=O)(=O)OCc1nsc2ccc(-n3c(=O)cc(C(F)(F)F)n(C)c3=O)cc12` [Example 371, 2,4(1H,3H)-Pyrimidinedione, 3-[3-(hydroxymethyl)-1,2-benzisothiazol-5-yl]-1-methyl-6-(trifluoromethyl)-, 1-methylethanesulfonate (ester)], the “herbicidal effect rating, MOOVA” value in assay [1] (setting [4]), in assay [1] (setting [5]), in assay [1] (setting [6]) and in assay [1] (setting [7]) was 9.0 throughout. The “herbicidal effect rating, CYPSE” value in assay [2] (setting [4]) is 0.0; in assay [2] (setting [5]), 0.0; in assay [2] (setting [6]) it was 6.0; in assay [2] (setting [7]), 9.0. Also, the “herbicidal effect rating, CYPIR” value in the assay with Cyperus iria (setting [4]) worked out at 4.0; in the assay with Cyperus iria (setting [5]) it was 6.0; in the assay with Cyperus iria (setting [6]), 9.0; with Cyperus iria (setting [7]), 9.0. In addition, the “herbicidal effect rating, ECHORC” value in assay [3] (setting [4]) is 3.0; in assay [3] (setting [5]), 4.0; in assay [3] (setting [6]) it was 6.0; in assay [3] (setting [7]), 7.0. The “herbicidal effect rating, SAGPY” value in the assay with Sagittaria pygmaea, L. (setting [4]) amounted to 3.0; in the assay on Sagittaria pygmaea, L. (setting [5]), 4.0; in the assay with Sagittaria pygmaea, L. (setting [6]) it was 9.0; with Sagittaria pygmaea, L. (setting [7]) it was 9.0.

As for `Cn1c(C(F)(F)F)cc(=O)n(-c2ccc3snc(C(Cc4ccccc4)S(C)(=O)=O)c3c2)c1=O` (stereo not drawn) [Example 604, 2,4(1H,3H)-Pyrimidinedione, 1-methyl-3-{3-[alpha(methylsulfonyl)phenethyl]-1,2-benzisothiazol-5-yl}-6-(trifluoromethyl)-], the “herbicidal effect rating, MOOVA” value in assay [1] (setting [4]) was determined as 5.0; in assay [1] (setting [5]), 6.0; in assay [1] (setting [6]) it was 7.0; in assay [1] (setting [7]) it was 8.0. Further, the “herbicidal effect rating, CYPSE” value in assay [2] (setting [4]), in assay [2] (setting [5]), in assay [2] (setting [6]) and in assay [2] (setting [7]) was 0.0 throughout. The “herbicidal effect rating, CYPIR” value in the assay on Cyperus iria (setting [4]) was 0.0; in the assay on Cyperus iria (setting [5]), 3.0; with Cyperus iria (setting [6]) it was 4.0; with Cyperus iria (setting [7]) it was 6.0. The “herbicidal effect rating, ECHORC” value in assay [3] (setting [4]) stood at 7.0; in assay [3] (setting [5]), 7.0; in assay [3] (setting [6]) it was 7.0; in assay [3] (setting [7]) it was 9.0. Besides, the “herbicidal effect rating, SAGPY” value with Sagittaria pygmaea, L. (setting [4]) worked out at 0.0; in the assay with Sagittaria pygmaea, L. (setting [5]), 0.0; in the assay on Sagittaria pygmaea, L. (setting [6]) it was 0.0; in the assay with Sagittaria pygmaea, L. (setting [7]) it was 0.0.

For the molecule `C#CCC(c1nsc2ccc(-n3c(=O)cc(C(F)(F)F)n(C)c3=O)cc12)S(C)(=O)=O` (stereo not shown) [Example 603, 2,4(1H,3H)-Pyrimidinedione, 1-methyl-3-{3-[1-(methylsulfonyl)-3-butynyl]-1,2-benzisothiazol-5-yl}-6-(trifluoromethyl)-], the “herbicidal effect rating, MOOVA” value was 7.0 in assay [1] (setting [4]), 7.0 in assay [1] (setting [5]), 9.0 in assay [1] (setting [6]) and 9.0 in assay [1] (setting [7]). Further, the entries for the “herbicidal effect rating, CYPSE” value in assay [2] (setting [4]), in assay [2] (setting [6]) and in assay [2] (setting [7]) were 0.0, 8.0 and 9.0, respectively. Besides, the “herbicidal effect rating, CYPIR” value is given as 5.0 with Cyperus iria (setting [4]), 6.0 in the assay on Cyperus iria (setting [6]) and 7.0 with Cyperus iria (setting [7]). Moreover, the “herbicidal effect rating, ECHORC” value in assay [3] (setting [4]) came to 0.0; in assay [3] (setting [5]), 4.0; in assay [3] (setting [6]) it was 6.0; in assay [3] (setting [7]), 8.0. Besides, the “herbicidal effect rating, SAGPY” value in the assay with Sagittaria pygmaea, L. (setting [4]) was found to be 0.0; in the assay with Sagittaria pygmaea, L. (setting [5]), 0.0; in the assay on Sagittaria pygmaea, L. (setting [6]), 2.0; in the assay with Sagittaria pygmaea, L. (setting [7]) it was 4.0.

With `Cn1c(C(F)(F)F)cc(=O)n(-c2ccc3snc(CS(=O)(=O)c4ccccc4)c3c2)c1=O` [Example 393, 2,4(1H,3H)-Pyrimidinedione, 1-methyl-3-{3-[(phenylsulfonyl)methyl]-1,2-benzisothiazol-5-yl}-6-(trifluoromethyl)-], the “herbicidal effect rating, MOOVA” value in assay [1] (setting [4]) is recorded as 7.0; in assay [1] (setting [5]), 8.0; in assay [1] (setting [6]), 8.0; in assay [1] (setting [7]) it was 9.0. Besides, the “herbicidal effect rating, CYPSE” value turned out to be 0.0 in assay [2] (setting [4]), 0.0 in assay [2] (setting [5]), 3.0 in assay [2] (setting [6]) and 6.0 in assay [2] (setting [7]). For the same molecule, the “herbicidal effect rating, CYPIR” value worked out at 0.0 with Cyperus iria (setting [4]), 3.0 in the assay on Cyperus iria (setting [5]), 3.0 in the assay with Cyperus iria (setting [6]) and 6.0 with Cyperus iria (setting [7]). In addition, the “herbicidal effect rating, ECHORC” value in assay [3] (setting [4]) worked out at 2.0; in assay [3] (setting [5]) it was 4.0; in assay [3] (setting [6]) it was 4.0; in assay [3] (setting [7]) it was 9.0. The “herbicidal effect rating, SAGPY” value in the assay on Sagittaria pygmaea, L. (setting [4]) was found to be 0.0; with Sagittaria pygmaea, L. (setting [6]), 3.0; in the assay on Sagittaria pygmaea, L. (setting [7]), 4.0.

Regarding `CCOC(=O)C1CCC(OC(=O)COc2ccc(C)cc2-c2nsc3ccc(-n4c(=O)cc(C(F)(F)F)n(C)c4=O)cc23)CC1` (single isomer, unassigned; isomer b) [Example 525, Acetic acid, {{2-{5-[3,6-dihydro-3-methyl-2,6-dioxo-4-(trifluoromethyl)-1(2H)-pyrimidinyl)-1,2-benzisothiazol-3-yl}-p-tolyl}oxy}-, ester with ethyl 4-hydroxycyclohexanecarboxylate, isomer B], the “herbicidal effect rating, MOOVA” value in assay [1] (setting [8]), in assay [1] (setting [9]), in assay [1] (setting [10]) and in assay [1] (setting [11]) was 9.0 throughout. Besides, the “herbicidal effect rating, CYPSE” value in assay [2] (setting [8]), in assay [2] (setting [9]), in assay [2] (setting [10]) and in assay [2] (setting [11]) was 0.0 throughout. Moreover, the “herbicidal effect rating, CYPIR” value is on record as 0.0 in the assay on Cyperus iria (setting [8]), 2.0 with Cyperus iria (setting [9]), 2.0 with Cyperus iria (setting [10]) and 4.0 in the assay with Cyperus iria (setting [11]). In addition, the “herbicidal effect rating, ECHORC” value in assay [3] (setting [8]) stood at 6.0; in assay [3] (setting [9]) it was 7.0; in assay [3] (setting [10]) it was 9.0; in assay [3] (setting [11]) it was 9.0. The “herbicidal effect rating, SAGPY” value with Sagittaria pygmaea, L. (setting [8]) was found to be 0.0; in the assay on Sagittaria pygmaea, L. (setting [9]) it was 0.0; in the assay with Sagittaria pygmaea, L. (setting [10]), 0.0; with Sagittaria pygmaea, L. (setting [11]) it was 0.0.

With `Cn1c(C(F)(F)F)cc(=O)n(-c2ccc3snc(COC(=O)NCc4ccccc4)c3c2)c1=O` [Example 390, 2,4(1H,3H)-Pyrimidinedione, 3-[3-(hydroxymethyl)-1,2-benzisothiazol-5-yl]-1-methyl-6-(trifluoromethyl)-, benzylcarbamate (ester)], the “herbicidal effect rating, MOOVA” value in assay [1] (setting [4]), in assay [1] (setting [5]), in assay [1] (setting [6]), in assay [1] (setting [7]) and in assay [1] (setting [12]) was 9.0 in each case. The “herbicidal effect rating, CYPSE” value in assay [2] (setting [4]) is listed as 2.5; in assay [2] (setting [6]), 4.0; in assay [2] (setting [7]) it was 9.0; in assay [2] (setting [12]), 6.0. Also, the “herbicidal effect rating, CYPIR” value in the assay on Cyperus iria (setting [4]) was determined as 1.0; with Cyperus iria (setting [5]), 4.0; with Cyperus iria (setting [6]), 7.0; with Cyperus iria (setting [7]), 9.0; in the assay with Cyperus iria (setting [12]) it was 9.0. Moreover, the “herbicidal effect rating, ECHORC” value in assay [3] (setting [4]) is reported as 5.5; in assay [3] (setting [5]), 7.0; in assay [3] (setting [6]) it was 8.0; in assay [3] (setting [7]) it was 9.0; in assay [3] (setting [12]), 9.0. Also, the “herbicidal effect rating, SAGPY” value in the assay with Sagittaria pygmaea, L. (setting [4]) worked out at 2.5; with Sagittaria pygmaea, L. (setting [5]) it was 5.5; in the assay with Sagittaria pygmaea, L. (setting [6]), 8.0; with Sagittaria pygmaea, L. (setting [7]), 8.0; in the assay on Sagittaria pygmaea, L. (setting [12]), 9.0.
